Data published in US20150284375A1 (AJINOMOTO CO., INC., priority 2012, published 2015).
pIC50: −log10 of the molar value.

Biological target: T1, human TRPA1 (Homo sapiens, UniProt O75762)
T1 construct: expressed in transfected cells; host or cells: Human embryonic kidney-derived 293T cells, transiently transfected with the pcDNA3.1/zeo(+) human TRPA1 plasmid
Experiment: Measurement of TRPA1 antagonist activity (intracellular calcium increase, FLIPR, allylisothiocyanate stimulation)
Format: cell-based
Details: allylisothiocyanate 20 μM stimulation, FLIPR calcium assay; read-out: antagonism hTRPA1
In short: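 IC50 derives from a sigmoid fit of inhibition of the 5-min FLIPR fluorescence change evoked by 20 μM allylisothiocyanate, normalized between agonist and buffer responses. Test substance, diluted in HBSS/20 mM HEPES pH 7.2 plus 0.1% BSA, was applied 10 min beforehand at room temperature to Calcium4-loaded 293T cells transiently expressing human TRPA1.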

T1 sequence (O75762 whole entry): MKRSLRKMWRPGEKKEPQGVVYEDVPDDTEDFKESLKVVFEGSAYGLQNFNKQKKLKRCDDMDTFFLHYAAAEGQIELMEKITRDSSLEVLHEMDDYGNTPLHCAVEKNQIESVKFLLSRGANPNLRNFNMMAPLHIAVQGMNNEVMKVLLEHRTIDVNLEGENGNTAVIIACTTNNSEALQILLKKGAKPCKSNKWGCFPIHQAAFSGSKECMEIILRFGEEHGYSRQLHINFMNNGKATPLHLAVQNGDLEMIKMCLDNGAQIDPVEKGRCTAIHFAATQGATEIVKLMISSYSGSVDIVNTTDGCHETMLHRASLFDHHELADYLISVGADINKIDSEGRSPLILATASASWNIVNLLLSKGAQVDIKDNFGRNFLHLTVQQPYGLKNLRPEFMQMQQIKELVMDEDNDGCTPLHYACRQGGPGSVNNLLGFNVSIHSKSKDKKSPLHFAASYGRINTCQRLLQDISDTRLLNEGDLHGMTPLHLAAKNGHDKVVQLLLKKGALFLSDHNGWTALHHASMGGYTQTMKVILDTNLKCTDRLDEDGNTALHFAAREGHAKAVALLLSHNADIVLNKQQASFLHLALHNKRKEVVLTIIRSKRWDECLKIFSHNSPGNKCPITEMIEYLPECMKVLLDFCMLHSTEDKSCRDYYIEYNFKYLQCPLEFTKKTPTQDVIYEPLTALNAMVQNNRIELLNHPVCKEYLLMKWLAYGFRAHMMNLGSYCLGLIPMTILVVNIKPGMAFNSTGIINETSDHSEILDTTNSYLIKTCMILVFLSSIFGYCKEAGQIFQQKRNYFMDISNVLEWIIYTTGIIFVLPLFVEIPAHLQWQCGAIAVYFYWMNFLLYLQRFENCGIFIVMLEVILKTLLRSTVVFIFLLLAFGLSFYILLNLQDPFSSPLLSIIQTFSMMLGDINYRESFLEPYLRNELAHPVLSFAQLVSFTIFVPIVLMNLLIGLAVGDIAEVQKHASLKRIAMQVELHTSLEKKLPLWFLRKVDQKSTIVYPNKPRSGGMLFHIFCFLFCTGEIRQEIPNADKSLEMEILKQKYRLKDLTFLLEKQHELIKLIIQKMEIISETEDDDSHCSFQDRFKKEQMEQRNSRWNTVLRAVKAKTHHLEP

SMILES	pIC50
O=C(NCc1cccc(OCc2ccc(C(F)(F)F)cc2)c1)[C@@H]1C[C@@H]2C[C@@H]2N1S(=O)(=O)c1ccc(F)cc1 [Example 174, (1S,3S,5S)-4-(4-fluorophenyl)sulfonyl-N-[[3-[[4-(trifluoromethyl)phenyl]methoxy]phenyl]methyl]-4-azabicyclo[3.1.0]hexane-3-carboxamide]	7.31
O=C(NCc1cccc(OCc2ccc(C(F)(F)F)cc2)c1)[C@@H]1CCCCN1S(=O)(=O)c1ccc(F)cc1 [Example 175, (2S)-1-(4-fluorophenyl)sulfonyl-N-[[3-[[4-(trifluoromethyl)phenyl]methoxy]phenyl]methyl]piperidine-2-carboxamide]	6.11
O=C(NCc1cccc(OCc2ccc(C(F)(F)F)cc2)c1)[C@@H]1CCCN1S(=O)(=O)c1ccco1 [Example 176, (2S)-1-(2-furylsulfonyl)-N-[[3-[[4-(trifluoromethyl)phenyl]methoxy]phenyl]methyl]pyrrolidine-2-carboxamide]	7.44
O=C(NCc1cccc(OCc2ccc(C(F)(F)F)cc2)c1)[C@@H]1CCCN1S(=O)(=O)c1ccoc1 [Example 177, (2S)-1-(3-furylsulfonyl)-N-[[3-[[4-(trifluoromethyl)phenyl]methoxy]phenyl]methyl]pyrrolidine-2-carboxamide]	7.57
O=C(NCc1cccc(OCc2ccc(C(F)(F)F)cc2)c1)[C@@H]1CCCN1S(=O)(=O)c1ccsc1 [Example 178, (2S)-1-(3-thienylsulfonyl)-N-[[3-[[4-(trifluoromethyl)phenyl]methoxy]phenyl]methyl]pyrrolidine-2-carboxamide]	8.07
O=C(NCc1cccc(OCc2ccc(C(F)(F)F)cc2)c1)[C@@H]1[C@@H](O)CCN1S(=O)(=O)c1ccco1 [Example 179, (2S,3S)-1-(2-furylsulfonyl)-3-hydroxy-N-[[3-[[4-(trifluoromethyl)phenyl]methoxy]phenyl]methyl]pyrrolidine-2-carboxamide]	6.22
O=C(NCc1cccc(OCc2ccc(C(F)(F)F)cc2)c1)[C@@H]1C[C@@H](O)CN1S(=O)(=O)c1ccco1 [Example 180, (2S,4R)-1-(2-furylsulfonyl)-4-hydroxy-N-[[3-[[4-(trifluoromethyl)phenyl]methoxy]phenyl]methyl]pyrrolidine-2-carboxamide]	5.89
O=C(NCc1cccc(OCc2ccccc2)c1)[C@@H]1CCCN1S(=O)(=O)c1ccco1 [Example 181, (2S)-N-[(3-benzyloxyphenyl)methyl]-1-(2-furylsulfonyl)pyrrolidine-2-carboxamide]	7.00
O=C(NCc1cccc(OCc2ccccc2)c1)[C@@H]1C=CCN1S(=O)(=O)c1ccco1 [Example 182, (2S)-N-[(3-benzyloxyphenyl)methyl]-1-(2-furylsulfonyl)-2,5-dihydropyrrole-2-carboxamide]	7.08
O=C(NCc1cccc(Oc2ccc(C(F)(F)F)cc2)c1)[C@@H]1CCCN1S(=O)(=O)c1nccs1 [Example 183, (2S)-1-thiazol-2-ylsulfonyl-N-[[3-[4-(trifluoromethyl)phenoxy]phenyl]methyl]pyrrolidine-2-carboxamide]	5.48
O=C(NCc1cccc(OCc2ccc(C(F)(F)F)cc2)c1)[C@@H]1CCCN1S(=O)(=O)c1nccs1 [Example 184, (2S)-1-thiazol-2-ylsulfonyl-N-[[3-[[4-(trifluoromethyl)phenyl]methoxy]phenyl]methyl]pyrrolidine-2-carboxamide]	6.01
N#Cc1ccc(S(=O)(=O)N2CCC[C@H]2C(=O)NCc2cccc(OCc3ccc(C(F)(F)F)cc3)c2)cc1 [Example 185, (2S)-1-(4-cyanophenyl)sulfonyl-N-[[3-[[4-(trifluoromethyl)phenyl]methoxy]phenyl]methyl]pyrrolidine-2-carboxamide]	6.62
O=C(NCc1cccc(Oc2ccc(C(F)(F)F)cc2)c1)[C@@H]1CCCN1S(=O)(=O)c1cccc(F)c1 [Example 186, (2S)-1-(3-fluorophenyl)sulfonyl-N-[[3-[4-(trifluoromethyl)phenoxy]phenyl]methyl]pyrrolidine-2-carboxamide]	7.15
O=C(NCc1cccc(Oc2ccc(C(F)(F)F)cc2)c1)[C@@H]1CCCN1S(=O)(=O)c1ccc(F)c(F)c1 [Example 187, (2S)-1-(3,4-difluorophenyl)sulfonyl-N-[[3-[4-(trifluoromethyl)phenoxy]phenyl]methyl]pyrrolidine-2-carboxamide]	7.22
O=C(NCc1cccc(Oc2ccc(C(F)(F)F)cc2)c1)[C@@H]1CCCN1S(=O)(=O)c1cc(F)cc(F)c1 [Example 188, (2S)-1-(3,5-difluorophenyl)sulfonyl-N-[[3-[4-(trifluoromethyl)phenoxy]phenyl]methyl]pyrrolidine-2-carboxamide]	7.00
O=C(NCc1cccc(Oc2ccc(C(F)(F)F)cc2)c1)[C@@H]1CCCN1S(=O)(=O)c1ccco1 [Example 189, (2S)-1-(2-furylsulfonyl)-N-[[3-[4-(trifluoromethyl)phenoxy]phenyl]methyl]pyrrolidine-2-carboxamide]	7.00

SMILES	pIC50
O=C(NCc1cccc(Oc2ccc(C(F)(F)F)cc2)c1)[C@@H]1CCCN1S(=O)(=O)c1ccsc1 [Example 190, (2S)-1-(3-thienylsulfonyl)-N-[[3-[4-(trifluoromethyl)phenoxy]phenyl]methyl]pyrrolidine-2-carboxamide]	7.46
O=C(NCc1cccc(OCc2ccc(C(F)(F)F)cc2)c1)[C@@H]1CCCN1S(=O)(=O)c1ccccc1 [Example 191, (2S)-1-(benzenesulfonyl)-N-[[3-[[4-(trifluoromethyl)phenyl]methoxy]phenyl]methyl]pyrrolidine-2-carboxamide]	7.18
O=C(NCc1cccc(OCc2ccc(C(F)(F)F)cc2)c1)[C@@H]1CCCN1S(=O)(=O)c1cccc(F)c1 [Example 192, (2S)-1-(3-fluorophenyl)sulfonyl-N-[[3-[[4-(trifluoromethyl)phenyl]methoxy]phenyl]methyl]pyrrolidine-2-carboxamide]	7.31
O=C(NCc1cccc(OCc2ccc(C(F)(F)F)cc2)c1)[C@@H]1CCCN1S(=O)(=O)c1cccc(Cl)c1 [Example 193, (2S)-1-(3-chlorophenyl)sulfonyl-N-[[3-[[4-(trifluoromethyl)phenyl]methoxy]phenyl]methyl]pyrrolidine-2-carboxamide]	6.59
N#Cc1cccc(S(=O)(=O)N2CCC[C@H]2C(=O)NCc2cccc(OCc3ccc(C(F)(F)F)cc3)c2)c1 [Example 194, (2S)-1-(3-cyanophenyl)sulfonyl-N-[[3-[[4-(trifluoromethyl)phenyl]methoxy]phenyl]methyl]pyrrolidine-2-carboxamide]	5.96
CC(=O)c1ccc(S(=O)(=O)N2CCC[C@H]2C(=O)NCc2cccc(OCc3ccc(C(F)(F)F)cc3)c2)cc1 [Example 195, (2S)-1-(4-acetylphenyl)sulfonyl-N-[[3-[[4-(trifluoromethyl)phenyl]methoxy]phenyl]methyl]pyrrolidine-2-carboxamide]	5.77
COc1ccc(S(=O)(=O)N2CCC[C@H]2C(=O)NCc2cccc(OCc3ccc(C(F)(F)F)cc3)c2)cc1 [Example 196, (2S)-1-(4-methoxyphenyl)sulfonyl-N-[[3-[[4-(trifluoromethyl)phenyl]methoxy]phenyl]methyl]pyrrolidine-2-carboxamide]	6.19
COc1cccc(S(=O)(=O)N2CCC[C@H]2C(=O)NCc2cccc(OCc3ccc(C(F)(F)F)cc3)c2)c1 [Example 197, (2S)-1-(3-methoxyphenyl)sulfonyl-N-[[3-[[4-(trifluoromethyl)phenyl]methoxy]phenyl]methyl]pyrrolidine-2-carboxamide]	5.77
COc1ccccc1S(=O)(=O)N1CCC[C@H]1C(=O)NCc1cccc(OCc2ccc(C(F)(F)F)cc2)c1 [Example 198, (2S)-1-(2-methoxyphenyl)sulfonyl-N-[[3-[[4-(trifluoromethyl)phenyl]methoxy]phenyl]methyl]pyrrolidine-2-carboxamide]	5.41
O=C(NCc1cccc(OCc2ccc(C(F)(F)F)cc2)c1)[C@@H]1CCCN1S(=O)(=O)c1ccc(OC(F)F)cc1 [Example 199, (2S)-1-[4-(difluoromethoxy)phenyl]sulfonyl-N-[[3-[[4-(trifluoromethyl)phenyl]methoxy]phenyl]methyl]pyrrolidine-2-carboxamide]	5.66
O=C(NCc1cccc(OCc2ccc(C(F)(F)F)cc2)c1)[C@@H]1CCCN1S(=O)(=O)c1cccs1 [Example 200, (2S)-1-(2-thienylsulfonyl)-N-[[3-[[4-(trifluoromethyl)phenyl]methoxy]phenyl]methyl]pyrrolidine-2-carboxamide]	7.22
O=C(NCc1cccc(OCc2ccc(C(F)(F)F)cc2)c1)[C@@H]1CCCN1S(=O)(=O)c1cccnc1 [Example 201, (2S)-1-(3-pyridylsulfonyl)-N-[[3-[[4-(trifluoromethyl)phenyl]methoxy]phenyl]methyl]pyrrolidine-2-carboxamide]	6.92
O=C(NCc1cccc(OCc2ccc(C(F)(F)F)cc2)c1)[C@@H]1CCCN1S(=O)(=O)c1ccccn1 [Example 202, (2S)-1-(2-pyridylsulfonyl)-N-[[3-[[4-(trifluoromethyl)phenyl]methoxy]phenyl]methyl]pyrrolidine-2-carboxamide]	6.40
Cc1ccc(S(=O)(=O)N2CCC[C@H]2C(=O)NCc2cccc(OCc3ccc(C(F)(F)F)cc3)c2)o1 [Example 203, (2S)-1-[(5-methyl-2-foryl)sulfonyl]-N-[[3-[[4-(trifluoromethyl)phenyl]methoxy]phenyl]methyl]pyrrolidine-2-carboxamide]	6.77
Cc1sccc1S(=O)(=O)N1CCC[C@H]1C(=O)NCc1cccc(OCc2ccc(C(F)(F)F)cc2)c1 [Example 204, (2S)-1-[(2-methyl-3-thienyl)sulfonyl]-N-[[3-[[4-(trifluoromethyl)phenyl]methoxy]phenyl]methyl]pyrrolidine-2-carboxamide]	6.00
